Results as given in ChEMBL document CHEMBL5120892, “Identification and Characterization of Natural and Semisynthetic Quinones as Aurora Kinase Inhibitors” (J Nat Prod, 2022).
Activity calls are given as the source filed them. The calls are words filed in the database; no cut-off is given here.

What was measured:
[1] = tested on: HCC1954; test: Antiproliferative activity against human HCC1954 cells measured after 72 hrs by SRB assay; assay type: functional
[2] = tested on: MOLM-13; test: Antiproliferative activity against human MOLM-13 cells measured after 72 hrs by SRB assay; assay type: functional
[3] = tested on: MCF7; test: Antiproliferative activity against human MCF7 cells measured after 72 hrs by SRB assay; assay type: functional
[4] = tested on: MV4-11; test: Antiproliferative activity against human MV4-11 cells measured after 72 hrs by SRB assay; assay type: functional
[5] = tested on: K562; test: Antiproliferative activity against human K562 cells measured after 72 hrs by SRB assay; assay type: functional
[6] = tested on: HCT-116; test: Antiproliferative activity against human HCT-116 cells measured after 72 hrs by SRB assay; assay type: functional
[7] = tested on: CAL-51; test: Antiproliferative activity against human CAL-51 cells measured after 72 hrs by SRB assay; assay type: functional
[8] = tested on: BT-549; test: Antiproliferative activity against human BT-549 cells measured after 72 hrs by SRB assay; assay type: functional
[9] = molecular target: T1, Aurora kinase A (Homo sapiens) (UniProt O14965); test: Inhibition of Aurora A (122 to 403 residues) (unknown origin) expressed in Escherichia coli Rosetta 2(DE3) assessed as reduction in TACC3 phosphorylation at Ser 558 residue at 25 uM using TACC3 (519 to 838 residues) as substrate measured after 30 mins by Western blot analysis
T1 sequence (whole entry): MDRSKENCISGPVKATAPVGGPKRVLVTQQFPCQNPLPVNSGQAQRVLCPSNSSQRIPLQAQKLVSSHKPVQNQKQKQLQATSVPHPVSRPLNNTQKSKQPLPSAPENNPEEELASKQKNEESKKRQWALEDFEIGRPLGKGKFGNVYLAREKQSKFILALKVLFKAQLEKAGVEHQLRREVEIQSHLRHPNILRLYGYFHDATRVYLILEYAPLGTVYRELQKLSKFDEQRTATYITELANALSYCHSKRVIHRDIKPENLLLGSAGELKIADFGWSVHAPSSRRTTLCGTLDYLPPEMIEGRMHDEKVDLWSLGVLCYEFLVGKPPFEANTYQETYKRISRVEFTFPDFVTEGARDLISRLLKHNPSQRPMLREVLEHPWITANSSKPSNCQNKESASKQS

[10] = molecular target: T2, Aurora kinase B (Homo sapiens, UniProt Q96GD4); test: Inhibition of Aurora B (unknown origin)
[11] = molecular target: T3, Aurora kinase A (Homo sapiens, UniProt O14965); test: Inhibition of Aurora A (unknown origin)
T3 sequence (O14965 whole entry): T1 sequence (whole entry)

[12] = species on record: Homo sapiens; test: Selectivity ratio of IC50 for inhibition of Aurora B (unknown origin) to IC50 for inhibition of Aurora A (unknown origin)
[13] = tested on: A549; test: Induction of abnormal mitosis in human A549 cells assessed as formation of misaligned chromosome at 3 to 6 uM measured after 24 hrs by DAPI staining based immunofluorescence assay; assay type: functional, cell-based; conditions: dose 3-6 µM
[14] = tested on: HCT-116; test: Induction of apoptosis in human HCT-116 cells assessed as early apoptotic cells at 5 uM measured after 24 hrs by Annexin V-FITC/propidium iodide staining based flow cytometry (reference value: 2.92%); assay type: functional
[15] = tested on: HCT-116; test: Induction of apoptosis in human HCT-116 cells assessed as late apoptotic cells at 5 uM measured after 24 hrs by Annexin V-FITC/propidium iodide staining based flow cytometry (reference value: 0.02%); assay type: functional
[16] = tested on: A549; test: Induction of abnormal mitosis in human A549 cells assessed as increase in abrogated mitotic cells at 3 to 6 uM measured after 24 hrs by DAPI staining based immunofluorescence assay; assay type: functional, cell-based; conditions: dose 3-6 µM
[17] = tested on: HCT-116; test: Induction of apoptosis in human HCT-116 cells assessed as increase in cleaved PARP expression at 1.25 to 5 uM measured after 24 hrs by Western blot analysis; assay type: functional, cell-based; conditions: dose 1.25-5 µM
[18] = tested on: A549; test: Induction of abnormal mitosis in human A549 cells assessed as formation of aberrant spindle assembly at 3 to 6 uM measured after 24 hrs by DAPI staining based immunofluorescence assay; assay type: functional, cell-based; conditions: dose 3-6 µM
[19] = molecular target: T1, Aurora kinase A (Homo sapiens); test: Binding affinity to Aurora A (unknown origin) expressed in Escherichia coli Rosetta 2(DE3) at 1 mM by STD NMR analysis
[20] = tested on: A549; test: Induction of abnormal mitosis in human A549 cells assessed as formation of single spindle pole at 3 to 6 uM measured after 24 hrs by CDK5Rap2 staining based immunofluorescence assay; assay type: functional, cell-based; conditions: dose 3-6 µM
[21] = tested on: HCT-116; test: Induction of apoptosis in human HCT-116 cells assessed as late apoptotic cells at 2.5 uM measured after 24 hrs by Annexin V-FITC/propidium iodide staining based flow cytometry (reference value: 0.02%); assay type: functional
[22] = tested on: HCT-116; test: Induction of apoptosis in human HCT-116 cells assessed as early apoptotic cells at 2.5 uM measured after 24 hrs by Annexin V-FITC/propidium iodide staining based flow cytometry (reference value: 2.92%); assay type: functional
[23] = molecular target: T3, Aurora kinase A; test: Inhibition of Aurora A (122 to 403 residues) (unknown origin) expressed in Escherichia coli Rosetta 2(DE3) assessed as reduction in TACC3 phosphorylation at Ser 558 residue using TACC3 (519 to 838 residues) as substrate measured after 30 mins by Western blot analysis
[24] = molecular target: T2, Aurora kinase B; test: Inhibition of Aurora B in human HCT-116 cells using histone H3 as substrate measured after 2 hrs by Western blot analysis; assay type: cell-based
[25] = molecular target: T1, Aurora kinase A (Homo sapiens); test: Inhibition of Aurora A in human HCT-116 cells using TACC3 as substrate measured after 2 hrs by Western blot analysis; assay type: cell-based; conditions: dose 1.56-50 µM, DDE = dose-dependent effect
[26] = species on record: Homo sapiens; test: Selectivity ratio of IC50 for inhibition of Aurora B (unknown origin) to IC50 for inhibition of Aurora A (unknown origin) expressed in Escherichia coli Rosetta 2(DE3)

T2 sequence (Q96GD4 whole entry): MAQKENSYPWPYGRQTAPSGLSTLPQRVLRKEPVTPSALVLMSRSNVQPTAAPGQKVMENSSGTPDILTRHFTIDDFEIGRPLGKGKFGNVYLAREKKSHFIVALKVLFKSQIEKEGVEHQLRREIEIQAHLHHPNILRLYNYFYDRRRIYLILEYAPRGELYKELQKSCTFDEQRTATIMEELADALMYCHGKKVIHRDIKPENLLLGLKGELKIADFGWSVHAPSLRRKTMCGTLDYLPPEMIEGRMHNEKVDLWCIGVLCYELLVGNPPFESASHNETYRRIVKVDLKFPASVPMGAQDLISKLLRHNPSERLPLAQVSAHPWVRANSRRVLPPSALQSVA

SMILES | GI50 [1] [µM] | GI50 [2] [µM] | GI50 [3] [µM] | GI50 [4] [µM] | GI50 [5] [µM] | GI50 [6] [µM] | GI50 [7] [µM] | GI50 [8] [µM] | inhibition [9] | IC50 [10] [µM] | IC50 [11] [µM] | Ratio IC50 [12] | further results
CC1(C)CCC2=C(O1)c1ccccc1C(=O)C2=O [LAPACHONE] | 31.8 | 34.5 | 12.2 | 70.1 | 41 | 12.9 | 8.3 | 11.4 |  |  |  |  | 
CC1=C(Br)C(=O)c2ccccc2C1=O | 1.4 | < 0.01 | 19.1 | 3.3 | 3.4 | 3.4 | 1.5 | 4.9 | Active | 0.96 | 0.09 | 10.7 | 
CC=CCC1=C(O)C(=O)c2ccccc2C1=O | > 100 | > 100 | > 100 | 79.1 | > 100 | 41.5 | 54.1 | 47 |  |  |  |  | 
COC(=O)/C=C(/CC1=C(CCC(=O)CC2(C)OCCO2)C(=O)c2ccccc2C1=O)OC | 19.1 | 16.8 | 28.3 | 43.1 | 9.7 | 21.5 | 16.3 | 24 |  |  |  |  | 
CC1=CC(=O)c2cccc(O)c2C1=O | 0.34 | 4.1 | 1.4 | 26.5 | 1.3 | 0.46 | 2.5 | 2.7 |  |  |  |  | 
O=C1C=C(Cl)C(=O)c2c(O)cccc21 | 0.99 | 1.7 | 15.6 | 0.18 | 3.2 | 4.1 | 12.7 | 9.3 | Active | 1.8 | 0.15 | 12 | 
CC1=CC(=O)c2c(O)cc(C)c(C(=O)C(Cl)Cl)c2C1=O | 1.6 | 3.7 | 25.8 | 0.86 | 3.7 | 4.3 | 1.9 | 8.5 |  |  |  |  | 
O=C1c2ccccc2C(=O)c2c(O)c(CCl)cc(O)c21 | 0.61 | 3.7 | 0.59 | 6.3 | 2.8 | 0.22 | 0.15 | 0.4 |  | 0.41 | 0.12 | 3.42 | Activity [13]: Active; Activity [14]: 17.6%; Activity [15]: 53.93%; Activity [16]: Active; Activity [17]: Active; Activity [18]: Active; Activity [19]: Active; Activity [20]: Active; Activity [21]: 8.31%; Activity [22]: 11.27%
O=C1C=CC(=O)c2c(O)ccc(O)c21 [NAPHTHAZALIN] | 0.49 | 0.28 | 0.43 | 0.19 | 1.7 | 0.16 | 0.56 | 0.43 | Active | 0.35 |  |  | Activity [13]: Active; Activity [14]: 6.36%; Activity [15]: 21.56%; IC50 [23]: 0.09 µM; Activity [16]: Active; inhibition [24]: Active; Activity [17]: Active; inhibition [25]: Dde; Activity [18]: Active; Activity [19]: Active; Activity [20]: Active; Ratio IC50 [26]: 3.89; Activity [21]: 3.78%; Activity [22]: 6.85%
O=C1C=CC(=O)c2c(O)cccc21 [JUGLONE] | 6.44 | 21.9 | 32.6 | 0.06 | > 100 | 4.2 | > 100 | > 100 | Active | 0.62 | 0.05 | 12.4 | 
COc1ccc2c(c1)C(=O)C=CC2=O | 2.2 | 4.1 | 28.9 | 4.3 | 2.9 | 8.3 | 2.8 | 34 |  |  |  |  | 
